“And” between values parts separate entries of the source, which are not always exact repeats. Identical values can stand only once. Toxic doses and inconclusive results are not listed. The calls were made as follows: active = survival T/C of 150% or more; inactive = T/C below 125% in these data.
Test system: P388 leukemia ip, CD2F1 mice, survival T/C
Test: NCI In Vivo Anticancer Drug Screen. Data for tumor model P388 Leukemia (intraperitoneal) in CD2F1 (CDF1) mice
Conditions: endpoint: median survival time, higher = longer survival
In short: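 Mice carrying the transplanted tumor received test compound or vehicle. Survival was recorded in each group, and the value is the treated-group measurement divided by that of the vehicle-treated control group.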

[1] = dose: 50.0 mg/kg/injection, schedule: Q01DX009 (ip), vehicle: Klucel (hydroxypropylcellulose) (HPC)
[2] = dose: 100.0 mg/kg/injection, schedule: Q04DX003 (ip), vehicle: saline with Tween-80
[3] = dose: 60.0 mg/kg/injection, schedule: Q01DX005 (ip), vehicle: Klucel (hydroxypropylcellulose) (HPC)
[4] = dose: 50.0 mg/kg/injection, schedule: Q01DX005 (ip), vehicle: Klucel (hydroxypropylcellulose) (HPC)
[5] = dose: 100.0 mg/kg/injection, schedule: Q01DX005 (ip), vehicle: Klucel (hydroxypropylcellulose) (HPC)
[6] = dose: 200.0 mg/kg/injection, schedule: Q01DX005 (ip), vehicle: Klucel (hydroxypropylcellulose) (HPC)
[7] = dose: 50.0 mg/kg/injection, schedule: Q01DX009 (ip), vehicle: saline with Tween-80
[8] = dose: 100.0 mg/kg/injection, schedule: Q01DX009 (ip), vehicle: saline with Tween-80
[9] = dose: 200.0 mg/kg/injection, schedule: Q01DX009 (ip), vehicle: saline with Tween-80
[10] = dose: 100.0 mg/kg/injection, schedule: Q01DX009 (ip), vehicle: Klucel (hydroxypropylcellulose) (HPC)
[11] = dose: 200.0 mg/kg/injection, schedule: Q01DX009 (ip), vehicle: Klucel (hydroxypropylcellulose) (HPC)
[12] = dose: 12.5 mg/kg/injection, schedule: Q01DX009 (ip), vehicle: saline
[13] = dose: 25.0 mg/kg/injection, schedule: Q01DX009 (ip), vehicle: saline
[14] = dose: 50.0 mg/kg/injection, schedule: Q01DX009 (ip), vehicle: saline

Measured: T/C

C/C=C/C=C1/OC(C)=C(C(=O)OCC)C1=O
inactive: dose: 6.25 mg/kg/injection, schedule: Q01DX009 (ip), vehicle: Klucel (hydroxypropylcellulose) (HPC) 107 % of control | dose: 12.5 mg/kg/injection, schedule: Q01DX009 (ip), vehicle: Klucel (hydroxypropylcellulose) (HPC) 111 % of control | [1] 123 % of control

Cn1nc(-c2cccnc2)[n+]([O-])c2c(=O)n(C)c(=O)nc1-2
inactive: dose: 45.0 mg/kg/injection, schedule: Q01DX009 (ip), vehicle: saline with Tween-80 100 % of control | dose: 90.0 mg/kg/injection, schedule: Q01DX009 (ip), vehicle: saline with Tween-80 109 % of control | dose: 180.0 mg/kg/injection, schedule: Q01DX009 (ip), vehicle: saline with Tween-80 112 % of control

CCCCOP(O)(=S)OCCCC
inactive: dose: 100.0 mg/kg/injection, schedule: Q04DX002 (ip), vehicle: saline with Tween-80 108 % of control | [2] 105 % of control and 100 % of control | dose: 200.0 mg/kg/injection, schedule: Q04DX002 (ip), vehicle: saline with Tween-80 104 % of control | dose: 200.0 mg/kg/injection, schedule: Q04DX003 (ip), vehicle: saline with Tween-80 106 % of control and 100 % of control | dose: 400.0 mg/kg/injection, schedule: Q04DX002 (ip), vehicle: saline with Tween-80 95 % of control | dose: 400.0 mg/kg/injection, schedule: Q04DX003 (ip), vehicle: saline with Tween-80 101 % of control and 106 % of control

CN=C(NC)c1ccc(NC(=O)c2cc(C)cc(C(=O)Nc3ccc(C(=NC)NC)cc3)c2)cc1
inactive: dose: 3.12 mg/kg/injection, schedule: Q01DX005 (ip), vehicle: saline with Tween-80 103 % of control | dose: 6.25 mg/kg/injection, schedule: Q01DX005 (ip), vehicle: saline with Tween-80 105 % of control | dose: 12.5 mg/kg/injection, schedule: Q01DX005 (ip), vehicle: saline with Tween-80 107 % of control

CSC1=CC(=NCc2ccccc2)CC(C)(C)S1
inactive: dose: 15.0 mg/kg/injection, schedule: Q01DX005 (ip), vehicle: Klucel (hydroxypropylcellulose) (HPC) 110 % of control | dose: 30.0 mg/kg/injection, schedule: Q01DX005 (ip), vehicle: Klucel (hydroxypropylcellulose) (HPC) 104 % of control | [3] 101 % of control and 105 % of control

O=CCC1CC2CCCCN2O1 (stereo unspecified)
inactive: dose: 25.0 mg/kg/injection, schedule: Q04DX003 (ip), vehicle: saline with Tween-80 102 % of control | dose: 50.0 mg/kg/injection, schedule: Q04DX003 (ip), vehicle: saline with Tween-80 101 % of control | [2] 108 % of control

CCCN(CCC)C(=O)C(c1ccccc1)C(O)(c1ccccc1)c1ccccc1 (stereo unspecified)
inactive: [4] 100 % of control | [5] 95 % of control | [6] 92 % of control

CCCCCCC(=O)/C=C/c1cccc(OCc2ccc(Cl)c(Cl)c2)c1
inactive: [7] 115 % of control | [8] 90 % of control | [9] 97 % of control

CC1=C(C)C(=O)O[C@@H]([C@](C)(O)[C@]2(O)CC[C@@]3(O)[C@@H]4C[C@H]5O[C@]56[C@@H](O)C=CC(=O)[C@]6(C)[C@H]4CC[C@]23C)C1
inactive: dose: 1.0 mg/kg/injection, schedule: Q01DX005 (ip), vehicle: distilled water + Tween-80 108 % of control | dose: 2.0 mg/kg/injection, schedule: Q01DX005 (ip), vehicle: distilled water + Tween-80 122 % of control | dose: 4.0 mg/kg/injection, schedule: Q01DX005 (ip), vehicle: distilled water + Tween-80 111 % of control and 113 % of control | dose: 4.0 mg/kg/injection, schedule: Q01DX005 (ip), vehicle: saline 122 % of control | dose: 8.0 mg/kg/injection, schedule: Q01DX005 (ip), vehicle: distilled water + Tween-80 108 % of control and 113 % of control | dose: 16.0 mg/kg/injection, schedule: Q01DX005 (ip), vehicle: distilled water + Tween-80 116 % of control | dose: 16.0 mg/kg/injection, schedule: Q01DX005 (ip), vehicle: saline 122 % of control | dose: 16.0 mg/kg/injection, schedule: Q01DX009 (ip), vehicle: saline 93 % of control | dose: 32.0 mg/kg/injection, schedule: Q01DX009 (ip), vehicle: saline 114 % of control

CNc1ccc(C=C2c3ccccc3-c3ccccc32)cc1
inactive: dose: 12.5 mg/kg/injection, schedule: Q01DX001 (ip), vehicle: saline with Tween-80 102 % of control | dose: 25.0 mg/kg/injection, schedule: Q01DX001 (ip), vehicle: saline with Tween-80 105 % of control | dose: 50.0 mg/kg/injection, schedule: Q01DX001 (ip), vehicle: saline with Tween-80 112 % of control | dose: 100.0 mg/kg/injection, schedule: Q01DX001 (ip), vehicle: saline with Tween-80 106 % of control

Cc1c(C(N)=O)c(-c2ccccc2)c(-c2ccccc2)n1Nc1ccccc1
inactive: [3] 95 % of control | dose: 120.0 mg/kg/injection, schedule: Q01DX005 (ip), vehicle: Klucel (hydroxypropylcellulose) (HPC) 96 % of control | dose: 240.0 mg/kg/injection, schedule: Q01DX005 (ip), vehicle: Klucel (hydroxypropylcellulose) (HPC) 92 % of control

Cn1nc([N+](=O)[O-])nc1-c1ccccc1
inactive: [7] 106 % of control | [8] 98 % of control | [9] 107 % of control | dose: 400.0 mg/kg/injection, schedule: Q01DX009 (ip), vehicle: saline with Tween-80 107 % of control

CN(C)P(c1ccccc1)N(C)C
inactive: [1] 106 % of control | [10] 102 % of control | [11] 107 % of control

O=C(O)c1ccccc1N1C(=O)CC2(CCCC2)C1=O
inactive: [1] 101 % of control | [10] 98 % of control | [11] 94 % of control

Cn1cccc1/C=N/N1CC(=O)N(c2ccc(Cl)cc2)CC1=O
inactive: dose: 50.0 mg/kg/injection, schedule: Q01DX005 (ip), vehicle: saline with Tween-80 110 % of control | dose: 100.0 mg/kg/injection, schedule: Q01DX005 (ip), vehicle: saline with Tween-80 106 % of control | dose: 200.0 mg/kg/injection, schedule: Q01DX005 (ip), vehicle: saline with Tween-80 88 % of control

CCOC(=O)CCCCCNC(=S)N1c2c(nc(N)[nH]c2=O)NCC1CNc1ccc(C(=O)NC(CCC(=O)O)C(=O)O)cc1 (stereo unspecified)
inactive: dose: 100.0 mg/kg/injection, schedule: Q01DX001 (ip), vehicle: sodium bicarbonate 89 % of control | dose: 200.0 mg/kg/injection, schedule: Q01DX001 (ip), vehicle: sodium bicarbonate 90 % of control | dose: 400.0 mg/kg/injection, schedule: Q01DX001 (ip), vehicle: sodium bicarbonate 92 % of control

O=c1[nH]c(=O)n(C2CC(O)C(CO)O2)cc1S (stereo unspecified)
inactive: [12] 99 % of control and 101 % of control and 105 % of control | [13] 100 % of control (2×) and 111 % of control | [14] 101 % of control and 111 % of control and 118 % of control

Clc1ccc(-c2n[nH]c3c2Cc2ccccc2-3)cc1Cl
inactive: [4] 97 % of control | [5] 91 % of control | [6] 98 % of control

O=C(CBr)NN=C(c1ccccc1)c1ccccc1
inactive: dose: 29.0 mg/kg/injection, schedule: Q01DX009 (ip), vehicle: saline with Tween-80 104 % of control | dose: 58.0 mg/kg/injection, schedule: Q01DX009 (ip), vehicle: saline with Tween-80 101 % of control | dose: 116.0 mg/kg/injection, schedule: Q01DX009 (ip), vehicle: saline with Tween-80 110 % of control

CC1(C)COCN(C2CCCCC2)C1
inactive: dose: 15.0 mg/kg/injection, schedule: Q01DX009 (ip), vehicle: saline with Tween-80 119 % of control | dose: 30.0 mg/kg/injection, schedule: Q01DX009 (ip), vehicle: saline with Tween-80 100 % of control | dose: 60.0 mg/kg/injection, schedule: Q01DX009 (ip), vehicle: saline with Tween-80 108 % of control

Cc1cccnc1NC(=S)Nc1ccccc1Cl
inactive: dose: 12.5 mg/kg/injection, schedule: Q01DX009 (ip), vehicle: gum acacia 104 % of control | dose: 25.0 mg/kg/injection, schedule: Q01DX009 (ip), vehicle: gum acacia 96 % of control | dose: 50.0 mg/kg/injection, schedule: Q01DX009 (ip), vehicle: gum acacia 104 % of control | dose: 100.0 mg/kg/injection, schedule: Q01DX009 (ip), vehicle: gum acacia 95 % of control

CN1C2CCC1CC(OC(=O)CBr)C2 (stereo unspecified)
inactive: [12] 115 % of control | [13] 107 % of control | [14] 117 % of control and 120 % of control

COc1cccc(-c2nc3n(n2)CCc2ccccc2-3)c1
inactive: [7] 105 % of control | [8] 106 % of control | [9] 86 % of control
